This is an account of results in paper PMC7520419 (The AAPS Journal, 2020).

≈ marks a conversion by molar mass, not a printed value. Like-named read-outs stand apart in the source and are kept apart here.

On the set-up of data set [1]: Food Effect (graded symbols): key to the marks not given beside the values. The settings on record: cited from earlier work.
Data set [2] is described as follows: PBPK food effect modeling (Simcyp V17.1 and/or GastroPlus V9.5; Model 1 / Model 2). More on the design: species or system human.
The conditions of data set [3]: not generated within this working group; ref Table I; cited from earlier work.
Details of data set [4]: method as in Table I reference column. The settings on record: not generated within this working group; ref Table I; cited from earlier work.
A short description of a further data set: BCS classification. Format: physicochemical.
The nature of another data set: pKa. The settings on record: pKa (a, acidic).
The subject of another data set is Caco-2. As to conditions: cited from earlier work.
Data set [5] is described as follows: Solubility measurement in biorelevant media (FaSSIF-V2, FeSSIF-V2). The settings on record: 37 °C, thermodynamic from solid.
Method: (§1) The solubility of the drug substances was determined in biorelevant media as well as in aqueous buffers at different pH. Fasted state simulated gastric fluid (FaSSGF) ([37]), fasted state simulated intestinal fluid (FaSSIF-V2) ([38]), and fed state simulated intestinal fluid (FeSSIF-V2) ([39]) were prepared according to the instructions provided by Biorelevant (Biorelevant.com Ltd., London, UK). […] For neutral compounds, solubility was determined at pH 2, pH 4, and pH 7.
(§2) For freely soluble compounds, the extent of solubilization was measured only up to 10 mg/mL.
Data set [6] is described as follows: Solubility measurement in aqueous buffer solutions. The settings on record: pH 6.5, aqueous buffer, thermodynamic from solid.
Method: as §1, §2
Data set [7] is described as follows: physchem. As to conditions: pH 6.5, aqueous buffer, thermodynamic from solid.
Method: as §1, §2
The nature of data set [8]: Effective human jejunum permeability (Peff,man) used in the PBPK model. As to conditions: human, 1 h. The class given is in vitro ADME.
Method: Permeation rates of the compounds, including reference compounds, were measured in the apical-to-basolateral (AB) direction. The donor and receiver wells were sampled immediately after application of the compound to the donor well to determine baseline concentrations, and again after 1 h. Quantification was done using high-performance liquid chromatography combined with mass spectrometry (HPLC-MS/MS) analysis and monolayer integrity was verified by analyzing the receiver samples for LuY fluorescence in a plate reader.
Data set [9] is described as follows: physchem. The settings on record: 37 °C, thermodynamic from solid.
Method: as §1, §2
Where [10] appears, read: Model 1, fasted, ref published clinical data (Table I).
[11] abbreviates: Model 1, fed, ref published clinical data (Table I).
Setting [12] is: Model 1, ref published clinical data (Table I).
[13] abbreviates: clinically observed PK change (AUC, Cmax) fed vs fasted, compiled by literature search.
[14] abbreviates: direction, AUC and/or Cmax ratio fed to fasted, BE criteria 0.8–1.25, ref drug label.
[15] abbreviates: not generated within this working group, ref Table I.
[16] abbreviates: Model 2, fasted, ref published clinical data (Table I).
Setting [17] is: Model 2, fed, ref published clinical data (Table I).
Setting [18] is: Model 2, ref published clinical data (Table I).

A word on the pKa: it is the negative logarithm of the acid dissociation constant. As a reminder, the solubility is how much of the substance goes into solution per volume.

As for `CC(C)(C)c1cc(C(C)(C)C)c(NC(=O)c2c[nH]c3ccccc3c2=O)cc1O` [Ivacaftor], in data set [1] (setting [10]), the “Observed AUC(0-inf) Fasted” value is 3.12 µg·h/mL and the “Observed Cmax Fasted” value was 148 ng/mL. For the same molecule, in data set [1] (setting [11]), the “Observed AUC(0-inf) Fed” value was 9.59 µg·h/mL and the “Observed Cmax Fed” value was 637 ng/mL. Moreover, in data set [1] (setting [12]), the “Observed AUC Ratios (Fed/Fasted)” value is given as 3.07 and the “Observed Cmax Ratios (Fed/Fasted)” value is given as 4.30. Moreover, the “Food Effect” value in [1] (setting [13]) is “Positive (positive if the ratio of fed > fasted)”. The Food Effect entry in data set [1] (setting [14]) is on record as “Positive (positive if the ratio of fed > fasted)”. Further, in data set [2] (Model 1), the “AUC Ratio of Ratios (Sim'd / Obs'd)” value is given as 1.03 and the “Cmax Ratio of Ratios (Sim'd / Obs'd)” value turned out to be 1.15. Further, in data set [3], the “Solubility at pH 6.5” value is 0.5^^ μg/ml. For the same molecule, in data set [4], the FaSSIF solubility is recorded as 53^^ μg/ml and the FeSSIF solubility is reported as 550^^ μg/ml. The BCS result in “BCS classification” is reported as “II/IV”. In “pKa”, this molecule displayed a pKa of 9.4. The “Apparent permeability (Caco-2)” value with Caco-2 (setting [15]) is given as 11.9 (Caco-2)^^ × 10^−6 cm/s.
`Cc1ccc(Nc2nccc(N(C)c3ccc4c(C)n(C)nc4c3)n2)cc1S(N)(=O)=O` [Pazopanib]: the solubility was 1.2 µg/mL (≈ 2.74 µM) in data set [5] (FaSSIF-V2 (fasted state simulated intestinal fluid), FaSSIF solubility); 2.8 µg/mL (≈ 6.4 µM) in [5] (FeSSIF-V2 (fed state simulated intestinal fluid), FeSSIF solubility); 0.5 µg/mL (≈ 1.14 µM) in [6]. In addition, the fasted bioavailability in data set [1] (800 mg dose) is listed as ~ 21%. In addition, the “fasted bioavailability, range” value in data set [1] (800 mg dose) is 14–39%. Also, the “increase in AUC0-72h with a high-fat meal” value in [1] (800 mg dose) is 2.3 fold; in data set [1] (800 mg dose, listed as pazopanib), “approximately 2.3 fold”. Besides, the “increase in Cmax with a high-fat meal” value in [1] (800 mg dose) was 2.1 fold. For the same molecule, the “Observed AUC(0-inf) Fasted” value in data set [1] (setting [10]) and in data set [1] (setting [16]) was 824 µg·h/mL in each case. Further, the “Observed Cmax Fasted” value in data set [1] (setting [10]) and in [1] (setting [16]) was 20700 ng/mL throughout. Besides, the “Observed AUC(0-inf) Fed” value in [1] (setting [11]) and in [1] (setting [17]) was 2020 µg·h/mL throughout. Besides, the “Observed Cmax Fed” value in data set [1] (setting [11]) and in [1] (setting [17]) was 45200 ng/mL in each case. For the same molecule, the “Observed AUC Ratios (Fed/Fasted)” value in data set [1] (setting [12]) and in data set [1] (setting [18]) was 2.45 throughout. The “Observed Cmax Ratios (Fed/Fasted)” value in [1] (setting [12]) and in data set [1] (setting [18]) was 2.19 throughout. Also, the “Food Effect” value in data set [1] (setting [13]) and in [1] (setting [14]) was “Positive (positive if the ratio of fed > fasted)” each time. The figures for the “AUC Ratio of Ratios (Sim'd / Obs'd)” value in data set [2] (Model 1) and in [2] (Model 2) were 0.13 and 0.24, respectively. Also, the “Cmax Ratio of Ratios (Sim'd / Obs'd)” value in data set [2] (Model 1) was determined as 0.12; in [2] (Model 2), 0.44. Also, the BCS result in “BCS classification” is reported as “II/IV”. In the data set with Caco-2 (setting [15]), the “Apparent permeability (Caco-2)” value is 16.9 (Caco-2)^^ × 10^−6 cm/s.
`CCC[C@H](NC(=O)[C@@H]1[C@H]2CCC[C@H]2CN1C(=O)[C@@H](NC(=O)[C@@H](NC(=O)c1cnccn1)C1CCCCC1)C(C)(C)C)C(=O)C(=O)NC1CC1` [Telaprevir]: in [1] (human, in vivo), the “Food Effect (graded symbols)” value was “+++”, the “Observed AUC Ratios (Fed/Fasted)” value was 3.71, the “Observed AUC(0-inf) Fasted” value is 3.58 µg·h/mL and the “Observed AUC(0-inf) Fed” value was 13.3 µg·h/mL. For the same molecule, in data set [1] (human, in vivo), the “Observed Cmax Fasted” value was 349 ng/mL, the “Observed Cmax Fed” value was 2080 ng/mL and the “Observed Cmax Ratios (Fed/Fasted)” value is 5.96. Besides, in data set [2] (Model 1), the “AUC Ratio of Ratios (Sim'd / Obs'd)” value is 0.42 and the “Cmax Ratio of Ratios (Sim'd / Obs'd)” value is on record as 0.26. For the same molecule, in [2] (Model 2), the “AUC Ratio of Ratios (Sim'd / Obs'd)” value stood at 0.66 and the “Cmax Ratio of Ratios (Sim'd / Obs'd)” value worked out at 0.44. This molecule gave a solubility in the data set “physchem [7]” of 85 µg/mL (≈ 125 µM). The molecule further gave an Effective permeability in data set [8] of 140 ×10⁻⁶ cm/s. For the same molecule, in the data set on Caco-2 (Caco-2), the “Apparent permeability (Caco-2)” value is listed as 4.4 (Caco-2)^^ × 10^−6 cm/s. This molecule returned a solubility in “physchem [9]” (FaSSIF solubility) of 120 µg/mL (≈ 177 µM). Also, the solubility in “physchem [9]” (FeSSIF solubility) stood at 80 µg/mL (≈ 118 µM).
